Columns and labels:
[1] = system: L1210 murine leukaemia cells; experiment: In vitro cytotoxic activity against L1210 murine leukaemia cells; format: cell-based; details: concentration required to inhibit cell growth by 50%
[2] = system: L1210/DDP cisplatin resistant cells; experiment: In vitro cytotoxic activity against cisplatin resistant L1210/DDP cells; format: cell-based, murine; details: concentration required to inhibit cell growth by 50%

| Substance | IC50 [1] [nM] | IC50 [2] [nM] |
| --- | --- | --- |
| {trans-diamminechloro(μ-dipyrazolylmethane)platinum(II)}chloride [Di-Pt] | 3800 | 8800 |
| {trans-diamminechloro(μ-spermidine)platinum(II)}chloride [BBR3571] | 11.5 | 7.5 |
| {trans-diamminebis{trans-diamminechloro(μ-1,6-hexanediamine)platinum(II)}platinum(II)}nitrate [BBR3464] | 57 | 24.5 |
